# Laboratory results from patent publication US4923802A, “Peptide substrates for the detection, characterization and purification of protein kinase C” (Immunex Corporation, priority 1985, dated 1990).
# “Also recorded” adds a separate entry of the source. Ends that are not written are not given here.
# Assays:
# [1] = tested on: protein kinase C; conditions: cited from earlier work
# [2] = tested on: protein kinase C; assay: Direct assay for protein kinase C: phosphorylation of peptide substrate with (gamma 32P) ATP, phosphocellulose filter counting; assay type: biochemical, rat
# Method: The peptide substrate of the present invention may be employed to assay for the presence of protein kinase C, for instance, during the above-outlined process of preparing the enzyme. The assay is based on the phosphorylation of the peptide substrate by protein kinase C. In the assay, the sample to be tested is mixed together with the peptide substrate, radiolabeled ATP, Ca^2+, phospholipid and diacylglycerol. The mixture is incubated for only a brief period to insure linearity of the reaction and then spotted onto phosphocellulose filter paper. The level of radioactivity on the filter is measured, for instance by liquid scintillation spectrometry. The level of radiation is indicative of the extent to which the substrate has been phosphorylated, which in turn is indicative of the amount of protein kinase C present in the sample being assayed. As can be appreciated, by use of the peptide substrate for the present invention, the presence of protein kinase C may be conveniently and rapidly assayed.
# Protein kinase C was prepared from the brains of eight rats each having a weight of from 150 to 200 grams. The rats are sacrificed by cervical dislocation. The brains of the rats are removed and placed in eight volumes of ice-cold buffer A (40 ml), composed of the following: 20 mM 4-(2-hydroxyethyl)-1-piperazineethanesulfonic acid ("HEPES"), pH 7.5; 0.3 M sucrose; 2 mM ethyl-enediaminetetracetic acid ("EDTA"); 10 mM ethylene glycol bis(B -aminoethylether)-N, N, N', N'-tetraacetic acid ("EGTA"); 2 mM dithiothreitol ("DDT"); 1 mM phenylmethylsulfonyl; 10 ug/ml pepstatin A; 10 ug/ml soybean tripsyn inhibitor; 10 ug/ml leupeptin; and 10 uM E-64 (Peninsula Labs). E 64 is an inhibitor of CA^2+ -activated proteases. The brains are homogenized with 5 strokes of teflon-glass homogenizer and centrifuged for one hour at 100,000×g in a Ti 75 rotor. The resulting supernatant is saved and adjusted to a conductivity of 0.7-0.9 mmho. […]
Substance,rate of reaction ([1]; peptide concentration 450 μM),"Km ([1]; protein kinase C, O'Brian et al., read-out: Km of the reaction)",reaction rate (rate of phosphorylation) ([2]; peptide concentration 1 mM),"Km (in words) ([2]; protein kinase C, no saturation at 3 mM)",saturation of protein kinase C with substrate ([2]; up to 3 mM peptide)
RRKASGPPV,8 pmole PO4 /min,130 µM,–,–,–
"LRRASLG [Kemptide, Leu-Arg-Arg-Ala-Ser-Leu-Gly]",–,–,20 pmole PO4 /min,so high that it could not be determined; also recorded: too high to be determined,not saturated; also recorded: will not saturate
